Measurements taken from the supplement of paper PMC10307832.

Experiments:
Assay in all cases: relative viability (nuclei count vs DMSO), 5 days (fraction); higher = more cells survive
Carfilzomib + Trametinib = compound: CC(C)C[C@H](NC(=O)[C@H](CCc1ccccc1)NC(=O)CN1CCOCC1)C(=O)N[C@@H](Cc1ccccc1)C(=O)N[C@@H](CC(C)C)C(=O)[C@@]1(C)CO1 [Carfilzomib] + CC(=O)Nc1cccc(-n2c(=O)n(C3CC3)c(=O)c3c(Nc4ccc(I)cc4F)n(C)c(=O)c(C)c32)c1 [Trametinib] (partner 0.02 µM)
Summary of the method: (§1)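 Nuclei were stained with Hoechst during a one-step fixation (final 0.05% Triton X-100, 1% formaldehyde, 1 ug/ml Hoechst) carried out 5 days after dosing, then counted on 4× images. The cells, lung cancer lines in 1536-well plates, had been dosed by pin tool the day after seeding with one drug alone or a fixed anchor-drug dose plus five library-drug doses (not always all listed) in √10 steps. Relative viability is the nuclei count in treated wells divided by that in vehicle wells, and each value is the median of duplicate plates.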

Crizotinib + Palbociclib = compound: C[C@@H](Oc1cc(-c2cnn(C3CCNCC3)c2)cnc1N)c1c(Cl)ccc(F)c1Cl [Crizotinib] + CC(=O)c1c(C)c2cnc(Nc3ccc(N4CCNCC4)cn3)nc2n(C2CCCC2)c1=O [Palbociclib] (partner 0.5 µM)
Summary of the method: as §1

Olaparib + Trametinib = compound: O=C(c1cc(Cc2n[nH]c(=O)c3ccccc23)ccc1F)N1CCN(C(=O)C2CC2)CC1 [Olaparib] + CC(=O)Nc1cccc(-n2c(=O)n(C3CC3)c(=O)c3c(Nc4ccc(I)cc4F)n(C)c(=O)c(C)c32)c1 [Trametinib] (partner 0.02 µM)
Summary of the method: as §1

Olaparib + Luminespib = compound: O=C(c1cc(Cc2n[nH]c(=O)c3ccccc23)ccc1F)N1CCN(C(=O)C2CC2)CC1 [Olaparib] + CCNC(=O)c1noc(-c2cc(C(C)C)c(O)cc2O)c1-c1ccc(CN2CCOCC2)cc1 [Luminespib] (partner 0.01 µM)
Summary of the method: as §1

Olaparib + AZD7762 = compound: O=C(c1cc(Cc2n[nH]c(=O)c3ccccc23)ccc1F)N1CCN(C(=O)C2CC2)CC1 [Olaparib] + NC(=O)Nc1cc(-c2cccc(F)c2)sc1C(=O)N[C@H]1CCCNC1 [AZD7762] (partner 0.2 µM)
Summary of the method: as §1

Cell Line: NCI-H1793
- relative viability (Carfilzomib + Trametinib; first compound 0.001 µM): 0.38
- relative viability (Carfilzomib + Trametinib; first compound 0.003162 µM): 0.497
- relative viability (Carfilzomib + Trametinib; first compound 0.01 µM): 0.46
- relative viability (Carfilzomib + Trametinib; first compound 0.03162 µM): 0.472
- relative viability (Carfilzomib + Trametinib; first compound 0.1 µM): 0.35
- relative viability (Crizotinib + Palbociclib; first compound 0.03162 µM): 0.339
- relative viability (Crizotinib + Palbociclib; first compound 0.1 µM): 0.311
- relative viability (Crizotinib + Palbociclib; first compound 1 µM): 0.277
- relative viability (Olaparib + Trametinib; first compound 0.08 µM): 0.522
- relative viability (Olaparib + Trametinib; first compound 0.253 µM): 0.427
- relative viability (Olaparib + Trametinib; first compound 2.53 µM): 0.395
- relative viability (Olaparib + Trametinib; first compound 8 µM): 0.476
- relative viability (Olaparib + Luminespib; first compound 0.08 µM): 0.144
- relative viability (Olaparib + Luminespib; first compound 0.253 µM): 0.225
- relative viability (Olaparib + Luminespib; first compound 2.53 µM): 0.138
- relative viability (Olaparib + Luminespib; first compound 8 µM): 0.149
- relative viability (Olaparib + AZD7762; first compound 0.08 µM): 0.747
- relative viability (Olaparib + AZD7762; first compound 0.253 µM): 0.438
- relative viability (Olaparib + AZD7762; first compound 2.53 µM): 0.488
- relative viability (Olaparib + AZD7762; first compound 8 µM): 0.283
